Assay results: article PMC6522510 (Nature Communications, 2019)
Where a name gives a salt, the structure may show the parent alone. Read-outs that look alike come from different tables or passages of the source.

Columns and labels:
Set-up in all cases: species or system AML cell lines (8); Primary HTS, single concentration about 10 uM, Cell Titer Glo viability; log10 luminescence, per cent inhibition relative to cycloheximide control
Conditions in all cases: 72 h, relative to cycloheximide control, log10 luminescence, inhibitor
[1] = system: MV4-11
[2] = system: ML-2
[3] = system: CMS
[4] = system: U937
[5] = system: CMK
[6] = system: CHRF288-11
[7] = system: MOLM-13
[8] = system: M07e

## COCCOC(=O)C1=C(C)NC(C)=C(C(=O)OC(C)C)C1c1cccc([N+](=O)[O-])c1 (stereo not shown) [SJ000285435-10, NIMODIPINE]
[1]; MV4-11 %inh, 10 µM
  MV4-11 %inh: 10.46%
[2]; ML-2 %inh, 10 µM
  ML-2 %inh: 3.623%
[3]; CMS %inh, 10 µM
  CMS %inh: 10.67%
[4]; U937 %inh, 10 µM
  U937 %inh: 7.013%
[5]; CMK %inh, 10 µM
  CMK %inh: 2.191%
[6]; CHRF288-11 %inh, 10 µM
  CHRF288-11 %inh: 10.94%
[7]; MOLM-13 %inh, 10 µM
  MOLM-13 %inh: 3.657%
[8]; M07e %inh, 10 µM
  M07e %inh: 6.293%

## CC1=Nc2ccc(Cl)cc2S(=O)(=O)N1 [SJ000285438-7, DIAZOXIDE]
[1]
  MV4-11 %inh: -7.128%
[2]
  ML-2 %inh: -2.212%
[3]
  CMS %inh: -4.011%
[4]
  U937 %inh: 2.608%
[5]
  CMK %inh: -0.09563%
[6]
  CHRF288-11 %inh: 3.174%
[7]
  MOLM-13 %inh: 13.73%
[8]
  M07e %inh: -1.23%

## COc1ccc2cc(CCC(C)=O)ccc2c1 [SJ000285475-3, NABUMETONE]
[1]; MV4-11 %inh, 10 µM
  MV4-11 %inh: 0.7976%
[2]; ML-2 %inh, 10 µM
  ML-2 %inh: 2.121%
[3]; CMS %inh, 10 µM
  CMS %inh: 0.5932%
[4]; U937 %inh, 10 µM
  U937 %inh: -2.289%
[5]; CMK %inh, 10 µM
  CMK %inh: 0.8703%
[6]; CHRF288-11 %inh, 10 µM
  CHRF288-11 %inh: -3.141%
[7]; MOLM-13 %inh, 10 µM
  MOLM-13 %inh: 0.1221%
[8]; M07e %inh, 10 µM
  M07e %inh: 3.981%

## COc1ccc2cc(CCC(C)=O)ccc2c1 [SJ000285475-4, NABUMETONE]
[1]; MV4-11 %inh, 10 µM
  MV4-11 %inh: -0.967%
[2]; ML-2 %inh, 10 µM
  ML-2 %inh: 1.434%
[3]; CMS %inh, 10 µM
  CMS %inh: -2.394%
[4]; U937 %inh, 10 µM
  U937 %inh: 0.6601%
[5]; CMK %inh, 10 µM
  CMK %inh: 3.657%
[6]; CHRF288-11 %inh, 10 µM
  CHRF288-11 %inh: -4.035%
[7]; MOLM-13 %inh, 10 µM
  MOLM-13 %inh: 3.416%
[8]; M07e %inh, 10 µM
  M07e %inh: -0.5005%

## CC(CN(C)C)CN1c2ccccc2Sc2ccccc21 (stereo not shown) [SJ000285488-4, TRIMEPRAZINE TARTRATE]
[1]
  MV4-11 %inh: 2.005%
[2]
  ML-2 %inh: 2.204%
[3]
  CMS %inh: -1.909%
[4]
  U937 %inh: 3.719%
[5]
  CMK %inh: 71.37%
[6]
  CHRF288-11 %inh: 12.91%
[7]
  MOLM-13 %inh: 6.284%
[8]
  M07e %inh: 5.667%

## CC(C)(S)[C@@H](N)C(=O)O [SJ000285530-3, PENICILLAMINE]
[1]
  MV4-11 %inh: 0.7087%
[2]
  ML-2 %inh: 0.1436%
[3]
  CMS %inh: 1.349%
[4]
  U937 %inh: -1.029%
[5]
  CMK %inh: -2.957%
[6]
  CHRF288-11 %inh: 1.093%
[7]
  MOLM-13 %inh: 4.905%
[8]
  M07e %inh: 4.147%

## CN1C(C(=O)Nc2ccccn2)=C(O)c2ccccc2S1(=O)=O [SJ000285539-7, PIROXICAM]
[1]; MV4-11 %inh, 10 µM
  MV4-11 %inh: -0.5288%
[2]; ML-2 %inh, 10 µM
  ML-2 %inh: 0.4088%
[3]; CMS %inh, 10 µM
  CMS %inh: -2.071%
[4]; U937 %inh, 10 µM
  U937 %inh: 1.434%
[5]; CMK %inh, 10 µM
  CMK %inh: -2.958%
[6]; CHRF288-11 %inh, 10 µM
  CHRF288-11 %inh: -2.388%
[7]; MOLM-13 %inh, 10 µM
  MOLM-13 %inh: -0.4149%
[8]; M07e %inh, 10 µM
  M07e %inh: -0.7405%

## CN1C(C(=O)Nc2ccccn2)=C(O)c2ccccc2S1(=O)=O [SJ000285539-8, PIROXICAM]
[1]; MV4-11 %inh, 10 µM
  MV4-11 %inh: 0.9197%
[2]; ML-2 %inh, 10 µM
  ML-2 %inh: 0.7358%
[3]; CMS %inh, 10 µM
  CMS %inh: 1.221%
[4]; U937 %inh, 10 µM
  U937 %inh: -0.5241%
[5]; CMK %inh, 10 µM
  CMK %inh: -3.417%
[6]; CHRF288-11 %inh, 10 µM
  CHRF288-11 %inh: -0.4698%
[7]; MOLM-13 %inh, 10 µM
  MOLM-13 %inh: -0.7172%
[8]; M07e %inh, 10 µM
  M07e %inh: 1.469%

## C[C@]12C=CC(=O)C=C1CC[C@@H]1[C@@H]2C(=O)C[C@@]2(C)[C@H]1CC[C@]2(O)C(=O)CO [SJ000285543-4, PREDNISONE]
[1]; MV4-11 %inh, 10 µM
  MV4-11 %inh: -0.9421%
[2]; ML-2 %inh, 10 µM
  ML-2 %inh: -1.792%
[3]; CMS %inh, 10 µM
  CMS %inh: -1.906%
[4]; U937 %inh, 10 µM
  U937 %inh: -1.889%
[5]; CMK %inh, 10 µM
  CMK %inh: -3.067%
[6]; CHRF288-11 %inh, 10 µM
  CHRF288-11 %inh: 3.346%
[7]; MOLM-13 %inh, 10 µM
  MOLM-13 %inh: -1.419%
[8]; M07e %inh, 10 µM
  M07e %inh: -1.735%

## C[C@]12C=CC(=O)C=C1CC[C@@H]1[C@@H]2C(=O)C[C@@]2(C)[C@H]1CC[C@]2(O)C(=O)CO [SJ000285543-5, PREDNISONE]
[1]; MV4-11 %inh, 10 µM
  MV4-11 %inh: 0.6819%
[2]; ML-2 %inh, 10 µM
  ML-2 %inh: -0.9024%
[3]; CMS %inh, 10 µM
  CMS %inh: -1.984%
[4]; U937 %inh, 10 µM
  U937 %inh: -0.6066%
[5]; CMK %inh, 10 µM
  CMK %inh: -3.757%
[6]; CHRF288-11 %inh, 10 µM
  CHRF288-11 %inh: 4.454%
[7]; MOLM-13 %inh, 10 µM
  MOLM-13 %inh: -2.385%
[8]; M07e %inh, 10 µM
  M07e %inh: 3.17%

## CCCCC1C(=O)N(c2ccccc2)N(c2ccccc2)C1=O [SJ000285567-6, PHENYLBUTAZONE]
[1]
  MV4-11 %inh: 1.406%
[2]
  ML-2 %inh: 1.616%
[3]
  CMS %inh: -0.9956%
[4]
  U937 %inh: -1.746%
[5]
  CMK %inh: -7.117%
[6]
  CHRF288-11 %inh: -2.959%
[7]
  MOLM-13 %inh: -1.33%
[8]
  M07e %inh: 3.977%
